Experimental findings from patent US12264156B2, “Compounds and pharmaceutical compositions thereof for the treatment of diseases” (GALAPAGOS NV, priority 2018, dated 2025) are described below.

One may read the EC50 as the concentration giving half of the maximal effect. A low value points to an effect from little substance. As usually defined, the IC50 is the concentration that inhibits the measured activity by half.

The test system of experiment [1] is LPS-induced TNFα in monocytes. Briefly: Monocytes assay: LPS-triggered TNFα (ELISA). The experiment is classed as cell-based, human. The following applies: Homo sapiens, Monocyte, LPS 200 ng/mL, supernatant after 4 h. On the procedure: SIK inhibition inhibits TNFα and increases IL-10 release in LPS triggered monocyte-derived macrophages (MdM) and dendritic cells (MdDCs) (Clark et al. 2012; Sundberg et al. 2014; Ozanne et al. 2015). This assay evaluates illustrative compounds of the invention for their inhibition of LPS-induced TNFα and LPS triggered IL-10 secretion in monocytes.
PBMCs are isolated from human blood samples (buffycoats). The buffy coat is aseptically transferred into a 50 mL Falcon tube, and diluted 1/2 in PBS. Falcon tubes are filled with 20 mL Lymphoprep™, on top of which 25 mL of the buffy coat is carefully added, tubes are centrifuged for 35 min at 400 g in temperature controlled centrifuge, without brake, at 25° C. PBMCs are aspirated from the white interface layer between sample and Lymphoprep™. PBMCs are washed five times in PBS. Cells are resuspended in RPMI 1640 complete medium supplemented with 10% FBS, 1% P/S, and cell density is determined using a hematologic analyzer (Sysmex XS-500i).
PBMCs are centrifuged at 300×g for 10 min and resuspended at a density of 1.0*10^7 cells/80 μL Miltenyi buffer (PBS, pH 7.4, 1% FBS, 2 mM EDTA).
Starting from this point of the protocol all steps are performed on ice. 20 μL of CD14+ micro-beads are added per 1.0*10^7 cells, the tube is mixed and incubated for 15 min in the fridge at 4° C. Cell suspension volume is adjusted to total volume of 100 mL using Miltenyi buffer, mixed gently and subsequently centrifuged for 10 min at 300×g. Supernantant is discarded and cell pellet is resuspended in 12 mL of Miltenyi buffer.
Four LS columns are placed in the MACS Separator (magnet) from Miltenyi Biotec, and are prewet by rinsing with 3 mL of MACS buffer per column. Three mL of cell suspension is added onto the column (max 1*10^8 of labelled cells/column), and columns are subsequently washed 3 times with 3 mL of Miltenyi buffer.
The columns are removed from the magnets, and 5 mL of Miltenyi buffer are added to the column to flush out the CD14+ fraction by pushing the plunger into the column. The flushed fractions are collected in a fresh 50 mL Falcon and volume is adjusted to 30 mL using Miltenyi buffer, cells are centrifuged for 10 min at 300×g. The obtained cell pellet is resuspended in 10 mL RPMI w/o FBS, and cell density is determined using a hematologic analyser (Sysmex XS-500i). 100 000 cells are seeded in 80 μL per well of a 96-well plate in RPMI 1640 medium supplemented with 10% FBS, 1% P/S.
A compound dilution plate is made in 100% DMSO by 3-fold dilution of 10 mM stock solution. An intermediate dilution plate (10× final concentration) is made by diluting the compound dilution plate 50-fold in RPMI medium.
10 μL of the 10× final concentration compound is added to the cells and incubated for 1 h at 37° C. before addition of trigger. No trigger conditions/trigger conditions are spiked with equal final DMSO concentrations of 0.2% DMSO. 10 μL of 10×LPS (final conc. 200 ng/mL) solution are added to all wells except for the ‘no trigger wells’ where 10 μL medium is added. Supernatant is collected after 4 h of LPS triggering.
A Lumitrac 600 Greiner 384-well plate is coated with 40 μL of capture antibody (BD Pharmingen, Cat #551220) reaching a final concentration of 1 μg/mL in 1×PBS and stored overnight at 4° C.
The plate is then washed once with PBST (PBS+0.05% Tween20) and once with PBS followed by the addition of 100 μL of blocking buffer (1% Bovine Serum Albumin (BSA)−5% Sucrose) and plates are sealed and incubated for at least 4 h at RT. After washing the plate once with PBST and once with PBS, […]. Plates are washed twice with PBST, and once with PBS, after which 35 μL of the detection antibody is added (final concentration 0.25 μg/mL diluted in dilution buffer) and plates are incubated for at least 2 h at RT. […]

Experiment [2] concerns LPS triggered IL-10 secretion in monocytes. Briefly: Monocytes assay: LPS-triggered IL-10 (ELISA). Type of experiment: cell-based, human. The following applies: LPS 200 ng/mL, supernatant after 4 h, maximal fold change vs LPS only. In a few lines:
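Human CD14+ monocytes, magnetically isolated from buffy-coat PBMCs, were seeded at 100 000 cells/well and preincubated with compound for 1 h at 37° C (0.2% DMSO). LPS was then added at a final 200 ng/mL for 4 h. Supernatant IL-10 was quantified by chemiluminescent sandwich ELISA against a standard curve.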
Background: An ELISA detects its analyte on a solid surface through an enzyme-linked reagent.

The target in a further experiment is T1, SIK1 (Homo sapiens, UniProt P57059).
T1 construct: purchased Carna Biosciences 02-131
Nature of the experiment: ADP-Glo kinase assay, SIK1. Type of experiment: biochemical. The following applies: ADP-Glo SIK kinase assay. In a few lines: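 Enzyme–substrate mix was started with ATP and incubated 120 min at RT. ADP formed was quantified by ADP-Glo: 40 min ATP depletion, then 30 min detection reagent converting ADP to ATP for luciferase luminescence, which rises with kinase activity. Controls: 1% DMSO and 10 μM staurosporine (final).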
On the technique in general: ADP-Glo first removes unused ATP, then detects ADP through luciferase.

Another experiment deals with T2, SIK3 (Homo sapiens, UniProt Q9Y2K2).
T2 construct: purchased SignalChem S12-11G-100
Nature of the experiment: ADP-Glo kinase assay, SIK3. Type of experiment: biochemical. The following applies: ADP-Glo SIK kinase assay. In a few lines: (§1)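 Wells with 1% DMSO or 10 μM staurosporine (final) define the control window. The kinase reaction with substrate and ATP runs 120 min at RT, followed by ADP-Glo detection: ATP depletion (40 min) and ADP-derived luminescence (30 min).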

In the next experiment the target is T3, SIK2 (Homo sapiens, UniProt Q9H0K1).
T3 construct: purchased ThermoFisher Scientific PV4792
Nature of the experiment: ADP-Glo kinase assay, SIK2. Type of experiment: biochemical. The following applies: ADP-Glo SIK kinase assay. In short, it runs like this:
as §1

T2 sequence (Q9Y2K2 whole entry): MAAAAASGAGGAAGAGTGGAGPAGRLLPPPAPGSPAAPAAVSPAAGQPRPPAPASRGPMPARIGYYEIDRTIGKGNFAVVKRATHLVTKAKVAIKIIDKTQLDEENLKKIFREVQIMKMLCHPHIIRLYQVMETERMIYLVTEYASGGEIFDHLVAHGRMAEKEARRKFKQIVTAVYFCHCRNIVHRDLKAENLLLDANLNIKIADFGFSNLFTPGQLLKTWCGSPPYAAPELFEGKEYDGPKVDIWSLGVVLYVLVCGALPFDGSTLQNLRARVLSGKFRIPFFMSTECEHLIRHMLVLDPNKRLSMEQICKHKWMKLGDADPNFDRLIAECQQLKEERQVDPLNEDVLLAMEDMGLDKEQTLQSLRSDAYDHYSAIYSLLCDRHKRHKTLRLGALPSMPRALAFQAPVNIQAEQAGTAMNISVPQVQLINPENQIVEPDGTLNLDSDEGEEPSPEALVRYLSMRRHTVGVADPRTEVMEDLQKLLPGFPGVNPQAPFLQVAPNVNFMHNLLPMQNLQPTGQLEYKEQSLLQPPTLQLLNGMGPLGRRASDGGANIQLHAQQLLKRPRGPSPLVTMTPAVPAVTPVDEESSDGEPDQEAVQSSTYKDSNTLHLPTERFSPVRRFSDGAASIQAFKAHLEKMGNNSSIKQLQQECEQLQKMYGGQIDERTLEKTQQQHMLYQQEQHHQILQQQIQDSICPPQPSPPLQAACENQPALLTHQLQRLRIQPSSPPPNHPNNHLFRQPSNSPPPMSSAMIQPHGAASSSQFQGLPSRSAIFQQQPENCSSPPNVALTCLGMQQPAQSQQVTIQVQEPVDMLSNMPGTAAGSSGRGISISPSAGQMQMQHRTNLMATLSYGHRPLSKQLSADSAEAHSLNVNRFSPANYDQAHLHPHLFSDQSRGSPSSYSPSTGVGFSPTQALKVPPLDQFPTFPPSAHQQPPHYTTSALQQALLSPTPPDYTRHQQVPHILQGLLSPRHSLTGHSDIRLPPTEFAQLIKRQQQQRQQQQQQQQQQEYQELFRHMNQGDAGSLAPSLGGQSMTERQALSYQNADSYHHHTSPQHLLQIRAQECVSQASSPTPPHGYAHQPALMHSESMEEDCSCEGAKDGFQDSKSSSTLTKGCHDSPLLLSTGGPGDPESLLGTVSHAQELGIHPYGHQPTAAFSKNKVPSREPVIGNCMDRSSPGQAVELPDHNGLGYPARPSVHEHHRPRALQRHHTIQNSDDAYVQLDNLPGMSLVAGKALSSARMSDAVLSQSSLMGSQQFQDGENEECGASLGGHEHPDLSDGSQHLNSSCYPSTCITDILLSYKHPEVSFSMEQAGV
T1 sequence (P57059 whole entry): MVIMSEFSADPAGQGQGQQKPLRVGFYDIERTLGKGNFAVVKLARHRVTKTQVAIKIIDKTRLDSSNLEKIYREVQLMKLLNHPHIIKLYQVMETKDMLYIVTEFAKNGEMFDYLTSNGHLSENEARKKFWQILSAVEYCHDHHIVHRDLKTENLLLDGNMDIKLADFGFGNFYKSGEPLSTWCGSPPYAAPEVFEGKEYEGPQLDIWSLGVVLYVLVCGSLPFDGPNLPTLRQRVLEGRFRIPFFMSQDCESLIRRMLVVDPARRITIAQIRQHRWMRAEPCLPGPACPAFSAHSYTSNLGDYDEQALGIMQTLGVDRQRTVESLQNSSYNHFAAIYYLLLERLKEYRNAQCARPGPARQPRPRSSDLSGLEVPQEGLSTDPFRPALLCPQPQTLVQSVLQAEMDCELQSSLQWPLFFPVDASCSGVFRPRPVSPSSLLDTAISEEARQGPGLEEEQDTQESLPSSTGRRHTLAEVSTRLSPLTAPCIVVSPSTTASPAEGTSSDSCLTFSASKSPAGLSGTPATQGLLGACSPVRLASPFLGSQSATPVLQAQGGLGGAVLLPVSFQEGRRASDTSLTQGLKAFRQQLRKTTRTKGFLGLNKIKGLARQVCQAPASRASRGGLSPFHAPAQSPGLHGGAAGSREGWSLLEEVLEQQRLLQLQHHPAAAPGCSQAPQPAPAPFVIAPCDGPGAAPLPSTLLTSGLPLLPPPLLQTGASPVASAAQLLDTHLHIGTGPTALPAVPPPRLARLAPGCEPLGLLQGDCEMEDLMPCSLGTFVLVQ
T3 sequence (Q9H0K1 whole entry): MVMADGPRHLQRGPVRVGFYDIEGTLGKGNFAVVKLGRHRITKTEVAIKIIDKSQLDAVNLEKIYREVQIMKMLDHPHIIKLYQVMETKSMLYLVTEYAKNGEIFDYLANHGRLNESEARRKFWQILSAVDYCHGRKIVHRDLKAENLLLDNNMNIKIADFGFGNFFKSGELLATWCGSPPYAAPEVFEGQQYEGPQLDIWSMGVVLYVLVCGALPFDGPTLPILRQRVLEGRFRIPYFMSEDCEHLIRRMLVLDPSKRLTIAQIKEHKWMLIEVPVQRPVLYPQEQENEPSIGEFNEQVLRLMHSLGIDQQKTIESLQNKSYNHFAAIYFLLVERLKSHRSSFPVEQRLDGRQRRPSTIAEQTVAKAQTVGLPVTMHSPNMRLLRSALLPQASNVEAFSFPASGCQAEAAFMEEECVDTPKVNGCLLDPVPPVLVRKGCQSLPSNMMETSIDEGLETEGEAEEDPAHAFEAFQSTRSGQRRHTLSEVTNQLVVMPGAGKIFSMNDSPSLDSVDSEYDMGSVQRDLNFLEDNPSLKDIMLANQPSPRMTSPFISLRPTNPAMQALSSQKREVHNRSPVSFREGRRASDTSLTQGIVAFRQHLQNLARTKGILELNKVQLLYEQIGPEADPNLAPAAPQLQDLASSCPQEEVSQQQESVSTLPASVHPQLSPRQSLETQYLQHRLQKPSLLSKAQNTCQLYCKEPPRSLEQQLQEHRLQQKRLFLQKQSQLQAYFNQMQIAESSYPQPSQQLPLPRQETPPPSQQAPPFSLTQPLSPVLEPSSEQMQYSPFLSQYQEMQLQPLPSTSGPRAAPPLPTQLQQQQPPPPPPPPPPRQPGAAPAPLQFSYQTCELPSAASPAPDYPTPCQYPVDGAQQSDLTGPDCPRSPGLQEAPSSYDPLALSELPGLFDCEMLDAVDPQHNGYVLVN

With `COc1cc(-c2cnc3cc(OCCCN4CCC5(COC5)C4)ccn23)cc(OC(F)F)c1C(=O)NC1CC1` [compound 285, N-cyclopropyl-2-(difluoromethoxy)-6-methoxy-4-[7-[3-(2-oxa-7-azaspiro[3.4]octan-7-yl)propoxy]imidazo[1,2-a]pyridin-3-yl]benzamide], in experiment [1] (4 h), the EC50 lay in the range of 100 to 1000 nM. Besides, in experiment [2], the “IL-10 FCmax median” value is listed as “+++ (>4.5)”. Moreover, the half-inhibitory concentration (IC50) fell in the range of 10 to 100 nM at SIK1, 0.01 to 10 nM on SIK3 and 0.01 to 10 nM at SIK2.

The compound `COc1cc(-c2cnc3cc(OCCCN4C(C)CCCC4C)ccn23)cc(OC(F)F)c1C(=O)NC1CC1` (centres unmarked) [compound 290, N-cyclopropyl-2-(difluoromethoxy)-4-[7-[3-(2,6-dimethyl-1-piperidyl)propoxy]imidazo [1,2-a]pyridin-3-yl]-6-methoxy-benzamide] had an EC50 in experiment [1] (4 h) of 0.1 to 100 nM. Further, in experiment [2], the “IL-10 FCmax median” value is “+++ (>4.5)”. The figures for the IC50 against SIK1, against SIK3 and at SIK2 were 10 to 100 nM, 0.01 to 10 nM and 0.01 to 10 nM, respectively.

Consider `COc1cc(-c2cnc3cc(OCCCN4CC5CCC(C4)O5)ccn23)cc(OC(F)F)c1C(=O)NC1CC1` [compound 291, N-cyclopropyl-2-(difluoromethoxy)-6-methoxy-4-[7-[3-(8-oxa-3-azabicyclo[3.2.1]octan-3-yl)propoxy]imidazo[1,2-a]pyridin-3-yl]benzamide], for which, in experiment [1] (4 h), the concentration for a half-maximal effect (EC50) was 0.1 to 100 nM. Moreover, the “IL-10 FCmax median” value in experiment [2] is listed as “+++ (>4.5)”. The IC50 on SIK1 lay in the range of 10 to 100 nM; against SIK3, 0.01 to 10 nM; against SIK2, 0.01 to 10 nM.

In the case of `COc1cc(-c2cnc3cc(OCCCN4C5CCC4COC5)ccn23)cc(OC(F)F)c1C(=O)NC1CC1` [compound 292, N-cyclopropyl-2-(difluoromethoxy)-6-methoxy-4-[7-[3-(3-oxa-8-azabicyclo[3.2.1]octan-8-yl)propoxy]imidazo[1,2-a]pyridin-3-yl]benzamide], in experiment [1], the EC50 is 0.1 to 100 nM. The “IL-10 FCmax median” value in experiment [2] is reported as “+++ (>4.5)”. In addition, the IC50 at SIK1 was in the range of 10 to 100 nM; against SIK3, 0.01 to 10 nM; against SIK2, 0.01 to 10 nM.

As to `COc1cc(-c2cnc3cc(OCCCN4CC5(CCC5)C4)ccn23)cc(OC(F)F)c1C(=O)NC1CC1` [compound 293, 4-[7-[3-(2-azaspiro[3.3]heptan-2-yl)propoxy]imidazo[1,2-a]pyridin-3-yl]-N-cyclopropyl-2-(difluoromethoxy)-6-methoxy-benzamide], the EC50 in experiment [1] (4 h) was in the range of 0.1 to 100 nM. In experiment [2], the “IL-10 FCmax median” value is “+++ (>4.5)”. In addition, the IC50 against SIK1 is 10 to 100 nM; at SIK3, 0.01 to 10 nM; against SIK2, 0.01 to 10 nM.

As for `COc1cc(-c2cnc3cc(OCCOCCN4CCN(C(C)C)CC4)ccn23)cc(OC(F)F)c1C(=O)NC1CC1` [compound 298, N-cyclopropyl-2-(difluoromethoxy)-4-[7-[2-[2-(4-isopropylpiperazin-1-yl)ethoxy]ethoxy]imidazo [1,2-a]pyridin-3-yl]-6-methoxy-benzamide], the EC50 in experiment [1] (4 h) was in the range of 100 to 1000 nM. In addition, the “IL-10 FCmax median” value in experiment [2] is listed as “+++ (>4.5)”. The values for the IC50 on SIK1, against SIK3 and at SIK2 were 10 to 100 nM, 0.01 to 10 nM and 0.01 to 10 nM, respectively.

As to `COc1cc(-c2cnc3cc(OCCC4CCCN4C4COC4)ccn23)cc(OC(F)F)c1C(=O)NC1CC1` (centres unmarked) [compound 299, N-cyclopropyl-2-(difluoromethoxy)-6-methoxy-4-[7-[2-[1-(oxetan-3-yl)pyrrolidin-2-yl]ethoxy]imidazo[1,2-a]pyridin-3-yl]benzamide], in experiment [1] (4 h), the EC50 was 0.1 to 100 nM. Moreover, the “IL-10 FCmax median” value in experiment [2] is “+++ (>4.5)”. Further, the values for the 50% inhibitory concentration (IC50) at SIK1, at SIK3 and against SIK2 were 10 to 100 nM, 0.01 to 10 nM and 0.01 to 10 nM, respectively.
